Laboratory results published in patent US20220211860A1, “PEPTIDE DERIVATIVES AND CONJUGATES THEREOF FOR TREATING CANCER” (priority 2019, published 2022).
Read-outs that look alike come from different tables or passages of the source. One block for each compound: values may come before it. Non-standard residues stand in square brackets, D forms with d. Residues, ends and D or L forms follow the SMILES beside them. *: point of attachment. Dolaproine = CO[C@@H]([C@@H]1CCCN1)[C@@H](C)C(=O)O; Dil = CC[C@H](C)[C@H](NC)[C@@H](CC(=O)O)OC; X1 = C[C@@H](N*)[C@@H](O)c1ccccc1; NMeV = CN[C@H](C(=O)O)C(C)C

How the values were obtained:
SKOV-3 [1] = conditions: read-out: IC50 inhibition of cell growth
Protocol: (§2) The IC50 values (μM) were estimated from concentration-response curves using non-linear regression for inhibition of cell growth. Data are expressed as mean±SD from at least three independent experiments, each in triplicate. Statistical analysis was performed using a two-way ANOVA (* p<0.05, the IC50 for each compared with that of their corresponding parent peptide for the same cell line).

MDA-MB-231 = conditions: read-out: IC50 inhibition of cell growth
Protocol: as §2

MCF-7 = conditions: read-out: IC50 inhibition of cell growth
Protocol: as §2

in vitro = conditions: human, plasma, half-life (T1/2)
Protocol: As described herein in vitro metabolic stability in plasma is defined as the susceptibility of a chemical compound to biotransformation in plasma, and is expressed as in vitro half-life (T1/2).
(B) The metabolic stability of LHRH peptide derivatives examined in human plasma and quantified by Liquid Chromatography-Mass-Spectrometry (LC-MS) in a time dependent manner. […] Statistical analysis was performed using a one-way ANOVA followed by Dunnett's post-hoc test. Error bars are standard deviations (STDV), p<0.05, n=9 (3 independent experiments each performed in triplicate).

SK-BR-3 = conditions: read-out: IC50 inhibition of cell growth
Protocol: as §2

MCF-10A = experiment: MTT cytotoxicity assay, MCF-10A normal breast cells; type: cell-based; conditions: 72 h
Protocol: (§1) FIG. 4A to 4E: The cytotoxic activity of the peptide conjugate LD5-mc-vc-PABC-MMAE (LM) in comparison to MMAE was assessed in MDA-MB-231 (TNBC cell model) versus HMEC and MCF-10A (normal breast cells) and SKOV-3 (low LHRH-R expressing cell model), by MTT assay after incubating cells with compounds in serial dilution for 72 h. (A) The relative cellular viability was assessed in comparison to PBS-treated negative control group and IC50 value (nM) was calculated by non-linear regression (curve fit) for HMEC and MCF-10A (normal breast cells) and MDA-MB-231 (LHRH-R positive, TNBC cell model) and SKOV-3 (LHRH-R low expressing cells). (B) The cell viability in LD5-me-vc-PABC-MMAE (LM) was assessed in HMEC as normal breast cell line in comparison to MMAE by two-way ANOVA followed by Sidak's multiple comparisons test (****p<0.0001). (C) The cell viability in LD5-mc-vc-PABC-MMAE (LM) was assessed in MCF-10A as normal breast cell line in comparison to MMAE by two-way ANOVA followed by Sidak's multiple comparisons test (***p<0.001, **p<0.01, *p<0.05). (D) The cell viability in LD5-me-vc-PABC-MMAE (LM) was assessed in MDA-MB-231 (TNBC cell model) in comparison to MMAE by two-way ANOVA followed by Sidak's multiple comparisons test (****p<0.0001). […]

HMEC = experiment: MTT cytotoxicity assay, HMEC normal breast cells; type: cell-based; conditions: 72 h
Protocol: as §1

SKOV-3 [2] = experiment: MTT cytotoxicity assay, SKOV-3 (low LHRH-R expressing); type: cell-based; conditions: SKOV-3, 72 h
Protocol: as §1

α-tubulin polymerisation = experiment: α-tubulin immunostaining in TNBC and normal breast cells; type: cell-based; conditions: TNBC cells and normal breast cells, 1 µM, 18 h
Protocol: FIGS. 8A and 8B: The effect of MMAE and LD5-me-vc-PABC-MMAE (LM) on α-tubulin polymerization. (A) MDA-MB-231 (TNBC cell model) and normal breast cells (HMEC and MCF-10A) were treated with free MMAE and LM at 1 μM and PBS (control) followed by immunostaining of α-tubulin with primary and secondary antibodies. The α-tubulin signals were detected by LEICA SPE2 confocal LSM. (B) The α-tubulin signal intensity was measured by Fiji J software in normal breast cells (HMEC and MCF-10A) and MDA-MB-231. ****p<0.0001 is the significance in the signal intensity in each cell line treated with PBS and LM in comparison to MMAE-treated cells. ####p<0.0001 is the significance of the α-tubulin signal intensity in MDA-MB-231 cells treated with LM in comparison to MCF-10A and HMEC cells. […] Statistical analysis was made in Prism by two-way ANOVA followed by Tukey's multiple comparisons test. Error bars are standard deviations (STDV), n=8 (3 independent repeats).
The intracellular effects of MMAE on α-tubulin polymerisation were examined using α-tubulin immunostaining in TNBC cells (MDA-MB-231) and normal breast cells (MCF-10A and HMEC) treated with MMAE and MMAE conjugated with LD5 (LD5-mc-vc-PABC-MMAE). TNBC cells and normal breast cells were fixed after incubating with […] of MMAE and LD5-mc-vc-PABC-MMAE for 18 h along with PBS as a control. […]

mice [3] = experiment: MTD of brentuximab vedotin in mice (comparison); type: in vivo
From the text: Therefore, the MTD was not reached at this dose. With the corresponding ADCs bearing MMAE the MTD has been considerably lower.

mice [4] = conditions: cited from earlier work

Compound: CCNC(=O)[C@@H]1CCCN1C(=O)[C@H](CCCNC(=N)N)NC(=O)[C@H](CC(C)C)NC(=O)[C@@H](CCCCN)NC(=O)[C@H](Cc1ccc(O)cc1)NC(=O)[C@H](CO)NC(=O)[C@H](Cc1c[nH]c2ccccc12)NC(=O)[C@H](Cc1c[nH]cn1)NC(=O)[C@@H](N)CCC(N)=O [LD4, Gln-His-Trp-Ser-Tyr-D-Lys-Leu-Arg-Pro-NHCH2CH3] (H-QHWSY[dK]LRP-NHEt)
IC50 (SKOV-3 [1]): > 100 µM
IC50 (MDA-MB-231): 36.2 ± 0.8 µM
IC50 (MCF-7): 51.3 ± 3.1 µM
half-life (in vitro): ~4.28 h
IC50 (SK-BR-3): 31.2 ± 4.8 µM

Compound: CCNC(=O)[C@@H]1CCCN1C(=O)[C@H](CCCNC(=N)N)NC(=O)[C@H](CC(C)C)NC(=O)[C@@H](CCCCN)NC(=O)[C@H](Cc1ccc(O)cc1)NC(=O)[C@H](CO)NC(=O)[C@H](Cc1c[nH]c2ccccc12)NC(=O)[C@H](Cc1c[nH]cn1)NC(=O)[C@@H]1CCC(=O)N1 [LD5, pGlu-His-Trp-Ser-Tyr-D-Lys-Leu-Arg-Pro-NHCH2CH3]
IC50 (SKOV-3 [1]): > 100 µM
IC50 (MDA-MB-231): 38.1 ± 1.4 µM
IC50 (MCF-7): 47.6 ± 5.4 µM
half-life (in vitro): ~6.08 h
IC50 (SK-BR-3): 33.5 ± 2.5 µM

Compound: CCNC(=O)[C@@H]1CCCN1C(=O)[C@H](CCCNC(=N)N)NC(=O)[C@H](CC(C)C)NC(=O)[C@@H](CCCCNC(=O)CCCCCN)NC(=O)[C@H](Cc1ccc(O)cc1)NC(=O)[C@H](CO)NC(=O)[C@H](Cc1c[nH]c2ccccc12)NC(=O)[C@H](Cc1c[nH]cn1)NC(=O)[C@@H]1CCC(=O)N1 [LD6, pGlu-His-Trp-Ser-Tyr-D-Lys(Ahx)-Leu-Arg-Pro-NHCH2CH3]
IC50 (SKOV-3 [1]): > 100 µM
IC50 (MDA-MB-231): 33.2 ± 2.5 µM
IC50 (MCF-7): 49.2 ± 2.1 µM
half-life (in vitro): ~5.15 h
IC50 (SK-BR-3): 29.7 ± 1.1 µM

Compound: CC(C)C[C@H](NC(=O)CNC(=O)[C@H](Cc1ccc(O)cc1)NC(=O)[C@H](CO)NC(=O)[C@H](Cc1c[nH]c2ccccc12)NC(=O)[C@H](Cc1c[nH]cn1)NC(=O)[C@@H]1CCC(=O)N1)C(=O)N[C@@H](CCCNC(=N)N)C(=O)N1CCC[C@H]1C(=O)NCC(N)=O [LHRH, pGlu-His-Trp-Ser-Tyr-Gly-Leu-Arg-Pro-Gly-NH2, reference compound]
IC50 (SKOV-3 [1]): > 100 µM
IC50 (MDA-MB-231): > 100 µM
IC50 (MCF-7): > 100 µM
half-life (in vitro): ~0.167 h
IC50 (SK-BR-3): > 100 µM

Compound: CC[C@H](C)[C@@H]([C@@H](CC(=O)N1CCC[C@H]1[C@H](OC)[C@@H](C)C(=O)N[C@H](C)[C@@H](O)c1ccccc1)OC)N(C)C(=O)[C@@H](NC(=O)[C@@H](NC)C(C)C)C(C)C [MMAE, monomethyl auristatin E] (H-[NMeV]V[Dil][Dolaproine]-X1)
IC50 (MCF-10A): 0.00083 µM
IC50 (HMEC): 0.00011 µM
IC50 (SKOV-3 [2]): 30 pM
α-tubulin formation compared to PBS control (α-tubulin polymerisation): dramatic decrease in α-tubulin formation

half-life (in vitro): ~0.65 h
Compound: CC(C)C[C@H](NC(=O)[C@@H](CCCCN)NC(=O)[C@H](Cc1ccc(O)cc1)NC(=O)[C@H](CO)NC(=O)[C@H](Cc1c[nH]c2ccccc12)NC(=O)[C@H](Cc1cnc[nH]1)NC(=O)[C@@H]1CCC(=O)N1)C(=O)N[C@@H](CCCNC(=N)N)C(=O)N1CCC[C@H]1C(=O)NCC(N)=O [[k^6] LHRH, reference compound]

Compound: CC(C)C[C@H](NC(=O)[C@@H](Cc1c[nH]c2ccccc12)NC(=O)[C@H](Cc1ccc(O)cc1)NC(=O)[C@H](CO)NC(=O)[C@H](Cc1c[nH]c2ccccc12)NC(=O)[C@H](Cc1c[nH]cn1)NC(=O)[C@@H]1CCC(=O)N1)C(=O)N[C@@H](CCCNC(=N)N)C(=O)N1CCC[C@H]1C(=O)NCC(N)=O [triptorelin, reference compound]
IC50 (SKOV-3 [1]): > 100 µM
IC50 (MDA-MB-231): 68.1 ± 8.1 µM
IC50 (MCF-7): 79.4 ± 5.3 µM
half-life (in vitro): ~0.317 h
IC50 (SK-BR-3): 81.2 ± 7.2 µM

Compound: brentuximab vedotin: ADC in the clinic containing MMAE
MTD expressed as equivalent of LHRHD-(mc-vc-PABC)-MMAE (mice [3]): approximately 70 mg/kg
MTD (mice [4]): 30 to 40 mg/kg
